From EP0443498A1, “Isoindoline derivatives” (KYORIN PHARMACEUTICAL CO., LTD., priority 1990, dated 1991)
Counter-ions that a name gives are not always drawn. Like-named read-outs stand apart in the source and are kept apart here.

Legend:
S. aureus 209P = assay: Antibacterial spectra (MIC), method of the Society of Chemotherapy in Japan; type: cell-based; details: Staphylococcus aureus, Gram +, 10^6 cells/ml, read-out: Minimum inhibitory concentration for growth
S. aureus Smith [1] = assay: as above; type: cell-based; details: Staphylococcus aureus, Gram +, 10^6 cells/ml, read-out: Minimum inhibitory concentration for growth
S. epidermidis IID866 = assay: as above; type: cell-based; details: Staphylococcus epidermidis; S. epidermidis IID866, Gram +, 10^6 cells/ml; read-out: Minimum inhibitory concentration for growth
S. pyogenes S-8 = assay: as above; type: cell-based; details: Streptococcus pyogenes, S8; S. pyogenes S-8, Gram +, 10^6 cells/ml; read-out: Minimum inhibitory concentration for growth
S. pneumoniae type III = assay: as above; type: cell-based; details: Streptococcus pneumoniae, Gram +, 10^6 cells/ml, read-out: Minimum inhibitory concentration for growth
K. pneumoniae KY6445 = assay: as above; type: cell-based; details: Klebsiella pneumoniae; K. pneumoniae KY6445, Gram -, 10^6 cells/ml; read-out: Minimum inhibitory concentration for growth
E. cloacae IID977 = assay: as above; type: cell-based; details: Enterobacter cloacae; E. cloacae IID977, Gram -, 10^6 cells/ml; read-out: Minimum inhibitory concentration for growth
C. freundii IID976 = assay: as above; type: cell-based; details: Citrobacter freundii; C. freundii IID976, Gram -, 10^6 cells/ml; read-out: Minimum inhibitory concentration for growth
P. mirabilis IID994 = assay: as above; type: cell-based; details: Proteus mirabilis; P. mirabilis IID994, Gram -, 10^6 cells/ml; read-out: Minimum inhibitory concentration for growth
S. enteritidis IID604 = assay: as above; type: cell-based; details: Salmonella enterica; S. enteritidis IID604, Gram -, 10^6 cells/ml; read-out: Minimum inhibitory concentration for growth
P. aeruginosa V-1 = assay: as above; type: cell-based; details: Pseudomonas aeruginosa, V1; P. aeruginosa V-1, Gram -, 10^6 cells/ml; read-out: Minimum inhibitory concentration for growth
A. anitratus IID876 = assay: as above; type: cell-based; details: Acinetobacter calcoaceticus; A. anitratus IID876, Gram -, 10^6 cells/ml; read-out: Minimum inhibitory concentration for growth
B. thetaiotaomicron 0661 = assay: as above; type: cell-based; details: Bacteroides thetaiotaomicron; B. thetaiotaomicron 0661, Gram -, 10^6 cells/ml; read-out: Minimum inhibitory concentration for growth
E. coli ML 4707 = assay: Therapeutic effect on the systemic infection of mouse; type: in vivo, ICR mice; details: Escherichia coli, ML4707, po, 1 h, read-out: ED50 E. coli
Method: (§1) The infectious bacteria were injected intraperitoneally using five ICR mice per group. one hour later, 5 doses of drugs were administered once orally, respectively, and, from a curve of survival rate of mouse as a function of dose of drug, a dose (EDso) by which 50% of animals escape the death to heal was determined.

S. aureus Smith [2] = assay: as above; type: in vivo, ICR mice; details: Staphylococcus aureus, po, 1 h, read-out: ED50 S. aureus
Method: as §1

E. coli NIHJ JC-2 = assay: Antibacterial spectra (MIC), method of the Society of Chemotherapy in Japan; type: cell-based; details: Escherichia coli, NIHJJC2; E. coli NIHJ JC-2, Gram -, 10^6 cells/ml; read-out: Minimum inhibitory concentration for growth
P. vulgaris IFO3167 = assay: as above; type: cell-based; details: Proteus vulgaris; P. vulgaris IFO3167, Gram -, 10^6 cells/ml; read-out: Minimum inhibitory concentration for growth
M. morganii IID602 = assay: as above; type: cell-based; details: Morganella morganii; M. morganii IID602, Gram -, 10^6 cells/ml; read-out: Minimum inhibitory concentration for growth
S. marcescens IID618 = assay: as above; type: cell-based; details: Serratia marcescens; S. marcescens IID618, Gram -, 10^6 cells/ml; read-out: Minimum inhibitory concentration for growth
S. sonnei IID969 = assay: as above; type: cell-based; details: Shigella sonnei; S. sonnei IID969, Gram -, 10^6 cells/ml; read-out: Minimum inhibitory concentration for growth
Method: The antibacterial test was performed according to the method designated by Society of Chemotherapy in Japan.

P. aeruginosa IFO12689 = assay: as above; type: cell-based; details: Pseudomonas aeruginosa; P. aeruginosa IFO12689, Gram -, 10^6 cells/ml; read-out: Minimum inhibitory concentration for growth
P. aeruginosa IID1210 = assay: as above; type: cell-based; details: Pseudomonas aeruginosa; P. aeruginosa IID1210, Gram -, 10^6 cells/ml; read-out: Minimum inhibitory concentration for growth
P. maltophilia GIFU2491 = assay: as above; type: cell-based; details: Stenotrophomonas maltophilia; P. maltophilia GIFU2491, Gram -, 10^6 cells/ml; read-out: Minimum inhibitory concentration for growth
S. pneumoniae S-4288 = assay: as above; type: cell-based; details: Streptococcus pneumoniae, S4288; S. pneumoniae S-4288, Gram +, 10^6 cells/ml; read-out: Minimum inhibitory concentration for growth
S. pneumoniae IID552 = assay: as above; type: cell-based; details: Streptococcus pneumoniae; S. pneumoniae IID552, Gram +, 10^6 cells/ml; read-out: Minimum inhibitory concentration for growth
E. faecalis IID682 = assay: as above; type: cell-based; details: Enterococcus faecalis; E. faecalis IID682, Gram +, 10^6 cells/ml; read-out: Minimum inhibitory concentration for growth
C. perfringens KYA13123 = assay: microbe, parasite or virus in culture; type: cell-based; details: Clostridium perfringens, KYA13123, read-out: Minimum inhibitory concentration for growth
[3] = E. coli ML 4707, 8.8x10^6 CFU/mouse intraperitoneally, drug once orally one hour later, dose at which 50% of ICR mice survive
[4] = S. aureus Smith, 4.8x10^6 CFU/mouse intraperitoneally, drug once orally one hour later, dose at which 50% of ICR mice survive

`COc1c(N2C[C@@H](C)[C@H](N)C2)c(F)cc2c(=O)c(C(=O)O)cn(C3CC3)c12` [Example 33, 7-[3(S)-amino-4(R)-methyl-l-pyrrolidinyl]-1-cyclopropyl-6-fluoro-1,4-dihydro-8-methoxy-4-oxo-3-quinolinecarboxylic acid hydrochloride] was tested. Which MIC (S. aureus 209P) did it give?
Its MIC is 0.025 µg/mL.

What about the MIC (S. aureus Smith [1]) of the same compound?
Its MIC is 0.025 µg/mL.

What about the MIC (S. epidermidis IID866) of the same compound?
The MIC was 0.05 µg/mL.

And the MIC (S. pyogenes S-8)?
Its MIC is 0.05 µg/mL.

What about the MIC (S. pneumoniae type III) of the same compound?
The MIC was 0.05 µg/mL.

What about the MIC (K. pneumoniae KY6445) of the same compound?
The MIC was 0.025 µg/mL.

What about the MIC (E. cloacae IID977) of the same compound?
Its MIC is 0.05 µg/mL.

And the MIC (C. freundii IID976)?
The MIC was 0.05 µg/mL.

What about the MIC (P. mirabilis IID994) of the same compound?
Its MIC is 0.05 µg/mL.

What about the MIC (S. enteritidis IID604) of the same compound?
Its MIC is 0.05 µg/mL.

What about the MIC (P. aeruginosa V-1) of the same compound?
Its MIC is 0.2 µg/mL.

What about the MIC (A. anitratus IID876) of the same compound?
Its MIC is 0.05 µg/mL.

And the MIC (B. thetaiotaomicron 0661)?
The MIC was 0.2 µg/mL.

What about the ED50 (E. coli ML 4707; [3]) of the same compound?
Its ED50 is 0.31 mg/kg.

What about the ED50 (S. aureus Smith [2]; [4]) of the same compound?
The ED50 was 1.21 mg/kg.

Which results are given for `COc1c(N2C[C@H](C)[C@@H](N)C2)c(F)cc2c(=O)c(C(=O)O)cn(C3CC3)c12` [Example 36, 7-[3(R)-amino-4(S)-methyl-I-pyrrolidinyl]-I-cyclopropyl-6-fluoro-1-4-dihydro-8-methoxy-4-oxo-3-quinolinecarboxylic acid hydrochloride]?
MIC (S. aureus 209P): 0.05 µg/mL; MIC (S. pyogenes S-8): 0.2 µg/mL; MIC (S. pneumoniae type III): 0.2 µg/mL; MIC (E. coli NIHJ JC-2): 0.025 µg/mL; MIC (K. pneumoniae KY6445): 0.05 µg/mL; MIC (E. cloacae IID977): 0.2 µg/mL; MIC (P. vulgaris IFO3167): 0.025 µg/mL; MIC (M. morganii IID602): 0.2 µg/mL; MIC (S. marcescens IID618): 0.2 µg/mL; MIC (S. sonnei IID969): 0.025 µg/mL; MIC (P. aeruginosa IFO12689): 1.56 µg/mL; MIC (P. aeruginosa IID1210): 1.56 µg/mL; MIC (P. maltophilia GIFU2491): 0.2 µg/mL; MIC (B. thetaiotaomicron 0661): 1.56 µg/mL; ED50 (E. coli ML 4707; [3]): 2.04 mg/kg; ED50 (S. aureus Smith [2]; [4]): 6.08 mg/kg

For `COc1c(N2C[C@@H](N)[C@@H](C)C2)c(F)cc2c(=O)c(C(=O)O)cn(C3CC3)c12` [Example 34, 7-[3(S)amino-4(S)-methyl-1-pyrrolidinyl]-1-cyclopropyl-6-fluoro-1,4-dihydro-8-methoxy-4-oxo-3-quinolinecarboxyic acid hydrochloride], which MIC (S. aureus 209P) is on record?
Its MIC is 0.025 µg/mL.

What about the MIC (S. aureus Smith [1]) of the same compound?
Its MIC is 0.025 µg/mL.

And the MIC (S. epidermidis IID866)?
The MIC was 0.05 µg/mL.

What about the MIC (S. pneumoniae type III) of the same compound?
Its MIC is 0.05 µg/mL.

What about the MIC (S. pneumoniae S-4288) of the same compound?
Its MIC is 0.2 µg/mL.

And the MIC (S. pneumoniae IID552)?
Its MIC is 0.2 µg/mL.

And the MIC (E. faecalis IID682)?
Its MIC is 0.2 µg/mL.

What about the MIC (K. pneumoniae KY6445) of the same compound?
The MIC was 0.025 µg/mL.

What about the MIC (C. freundii IID976) of the same compound?
Its MIC is 0.05 µg/mL.

And the MIC (P. vulgaris IFO3167)?
Its MIC is 0.025 µg/mL.

What about the MIC (P. mirabilis IID994) of the same compound?
The MIC was 0.025 µg/mL.

What about the MIC (S. enteritidis IID604) of the same compound?
Its MIC is 0.05 µg/mL.

And the MIC (P. aeruginosa V-1)?
Its MIC is 0.2 µg/mL.

What about the MIC (A. anitratus IID876) of the same compound?
The MIC was 0.05 µg/mL.

And the MIC (C. perfringens KYA13123)?
Its MIC is 0.2 µg/mL.

And the ED50 (E. coli ML 4707; [3])?
Its ED50 is 0.26 mg/kg.

And the ED50 (S. aureus Smith [2]; [4])?
The ED50 was 1.39 mg/kg.

What does the source list for `COc1c(N2C[C@@H](C)[C@@H](N)C2)c(F)cc2c(=O)c(C(=O)O)cn(C3CC3)c12.Cl` [Example 35, 7-[3(R)-amino-4(R)-methyl-1-pyrrolidinyl]-1-cyclopropyl-6-fluoro-1,4-dihydro-8-methoxy-4-oxo-3-quinolinecarboxylic acid hydrochloride]?
MIC (S. aureus 209P): 0.025 µg/mL; MIC (S. aureus Smith [1]): 0.025 µg/mL; MIC (S. epidermidis IID866): 0.05 µg/mL; MIC (S. pyogenes S-8): 0.2 µg/mL; MIC (S. pneumoniae S-4288): 0.2 µg/mL; MIC (S. pneumoniae IID552): 0.2 µg/mL; MIC (E. faecalis IID682): 0.2 µg/mL; MIC (E. coli NIHJ JC-2): 0.025 µg/mL; MIC (K. pneumoniae KY6445): 0.05 µg/mL; MIC (P. vulgaris IFO3167): 0.025 µg/mL; MIC (P. mirabilis IID994): 0.05 µg/mL; MIC (S. sonnei IID969): 0.025 µg/mL; MIC (P. aeruginosa IFO12689): 1.56 µg/mL; MIC (P. aeruginosa IID1210): 1.56 µg/mL; MIC (A. anitratus IID876): 0.05 µg/mL; MIC (C. perfringens KYA13123): 0.2 µg/mL; ED50 (E. coli ML 4707; [3]): 1.11 mg/kg; ED50 (S. aureus Smith [2]; [4]): 2 mg/kg

`O=C(O)c1cn(C2CC2)c2cc(N3CCNCC3)c(F)cc2c1=O` [CPFX, Ciprofloxacin, reference compound] was tested. Which ED50 (E. coli ML 4707) did it give?
The ED50 was 0.49 mg/kg.

And the ED50 (S. aureus Smith [2])?
The ED50 was 20.3 mg/kg.
